Experimental data published in PubChem BioAssay (NCI).
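Abbreviation: GI50, concentration required for 50% inhibition of growth. TGI denotes the concentration required for complete inhibition of growth.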

Key:
Test in all cases: NCI-60 cell line screen, 384-well format
[1] = system: 786-0 renal
[2] = system: A498 renal
[3] = system: A549 NSCLC
[4] = system: ACHN renal
[5] = system: BT-549 breast
[6] = system: CAKI-1 renal
[7] = system: CCRF-CEM leukemia
[8] = system: COLO 205 colon
[9] = system: DU-145 prostate
[10] = system: EKVX NSCLC
[11] = system: HCC-2998 colon
[12] = system: HCT-116 colon
[13] = system: HCT-15 colon
[14] = system: HL-60(TB) leukemia
[15] = system: HOP-62 NSCLC
[16] = system: HOP-92 NSCLC
[17] = system: HS 578T breast
[18] = system: HT29 colon
[19] = system: IGROV1 ovarian
[20] = system: K-562 leukemia
[21] = system: KM12 colon
[22] = system: LOX IMVI melanoma
[23] = system: M14 melanoma
[24] = system: MALME-3M melanoma
[25] = system: MCF7 breast
[26] = system: MDA-MB-231 breast
[27] = system: MDA-MB-435 melanoma
[28] = system: MDA-MB-468 breast
[29] = system: MOLT-4 leukemia
[30] = system: NCI-H226 lung
[31] = system: NCI-H23 lung
[32] = system: NCI-H322M lung
[33] = system: NCI-H460 NSCLC
[34] = system: NCI-H522 lung
[35] = system: NCI/ADR-RES ovarian
[36] = system: OVCAR-3 ovarian
[37] = system: OVCAR-4 ovarian
[38] = system: OVCAR-5 ovarian
[39] = system: PC-3 prostate
[40] = system: RPMI-8226 leukemia
[41] = system: RXF 393 renal
[42] = system: SF-268 CNS
[43] = system: SF-295 CNS
[44] = system: SF-539 CNS
[45] = system: SK-MEL-2 melanoma
[46] = system: SK-MEL-28 melanoma
[47] = system: SK-MEL-5 melanoma
[48] = system: SK-OV-3 ovarian
[49] = system: SN12C renal
[50] = system: SNB-19 CNS
[51] = system: SNB-75 CNS
[52] = system: SR leukemia
[53] = system: SW-620 colon
[54] = system: T-47D breast
[55] = system: TK-10 renal
[56] = system: U251 glioblastoma
[57] = system: UACC-257 melanoma
[58] = system: UACC-62 melanoma
[59] = system: UO-31 renal

Structure (SMILES): CN1CCN(c2ccc3nc(-c4c5cccccc-5[nH]c4=O)[nH]c3c2)CC1
- GI50 [1]: 7.07 µM
- TGI [1]: 28.1 µM
- GI50 [2]: 12.7 µM
- TGI [2]: 26.3 µM
- GI50 [3]: 6.49 µM
- TGI [3]: 38.1 µM
- GI50 [4]: 4.63 µM
- TGI [4]: 16.8 µM
- GI50 [5]: 4.48 µM
- TGI [5]: 14.6 µM
- GI50 [6]: 5.23 µM
- TGI [6]: 18.2 µM
- GI50 [7]: 3.47 µM
- TGI [7]: 10.7 µM
- GI50 [8]: 5.27 µM
- TGI [8]: 17.7 µM
- GI50 [9]: 6.01 µM
- TGI [9]: 26.7 µM
- GI50 [10]: 10.1 µM
- TGI [10]: 33.3 µM
- GI50 [11]: 7.05 µM
- TGI [11]: 29.1 µM
- GI50 [12]: 12.1 µM
- TGI [12]: 25.3 µM
- GI50 [13]: 7.04 µM
- TGI [13]: 26.4 µM
- GI50 [14]: 3.83 µM
- TGI [14]: 12.4 µM
- GI50 [15]: 4.43 µM
- TGI [15]: 20.9 µM
- GI50 [16]: 3.99 µM
- TGI [16]: 16.7 µM
- GI50 [17]: 4.73 µM
- TGI [17]: 18.4 µM
- GI50 [18]: 6.92 µM
- TGI [18]: 23.9 µM
- GI50 [19]: 3.84 µM
- TGI [19]: 15.6 µM
- GI50 [20]: 4.85 µM
- TGI [20]: 16.7 µM
- GI50 [21]: 0.371 µM
- TGI [21]: 10.7 µM
- GI50 [22]: 10.7 µM
- TGI [22]: 22.7 µM
- GI50 [23]: 9.46 µM
- TGI [23]: 21.4 µM
- GI50 [24]: 11 µM
- TGI [24]: 23.1 µM
- GI50 [25]: 7.26 µM
- TGI [25]: 21.3 µM
- GI50 [26]: 5.78 µM
- TGI [26]: 22.1 µM
- GI50 [27]: 11.9 µM
- TGI [27]: 31.9 µM
- GI50 [28]: 5.61 µM
- TGI [28]: 21 µM
- GI50 [29]: 1.8 µM
- TGI [29]: 3.2 µM
- GI50 [30]: 4.07 µM
- TGI [30]: 18 µM
- GI50 [31]: 7.46 µM
- TGI [31]: 26.8 µM
- GI50 [32]: 10.4 µM
- TGI [32]: 33.6 µM
- GI50 [33]: 3.65 µM
- TGI [33]: 13.8 µM
- GI50 [34]: 9.06 µM
- TGI [34]: 29.6 µM
- GI50 [35]: 16.7 µM
- TGI [35]: 47.1 µM
- GI50 [36]: 12.3 µM
- TGI [36]: 28.2 µM
- GI50 [37]: 10.3 µM
- TGI [37]: 38.6 µM
- GI50 [38]: 10.5 µM
- TGI [38]: 33.4 µM
- GI50 [39]: 6.81 µM
- TGI [39]: 25.3 µM
- GI50 [40]: 10 µM
- TGI [40]: 21.7 µM
- GI50 [41]: 2.7 µM
- TGI [41]: 8.68 µM
- GI50 [42]: 10.3 µM
- TGI [42]: 31.8 µM
- GI50 [43]: 12.2 µM
- TGI [43]: 32 µM
- GI50 [44]: 3.66 µM
- TGI [44]: 13.2 µM
- GI50 [45]: 28.6 µM
- TGI [45]: 44.4 µM
- GI50 [46]: 15.9 µM
- TGI [46]: 35 µM
- GI50 [47]: 8.18 µM
- TGI [47]: 21 µM
- GI50 [48]: 5.76 µM
- TGI [48]: 23.7 µM
- GI50 [49]: 3.39 µM
- TGI [49]: 17.8 µM
- GI50 [50]: 10.3 µM
- TGI [50]: 39.2 µM
- GI50 [51]: 3.71 µM
- TGI [51]: 17.6 µM
- GI50 [52]: 2.17 µM
- TGI [52]: 4.45 µM
- GI50 [53]: 6.59 µM
- TGI [53]: 24.9 µM
- GI50 [54]: 16.9 µM
- TGI [54]: 37.9 µM
- GI50 [55]: 4.51 µM
- TGI [55]: 19.3 µM
- GI50 [56]: 5.62 µM
- TGI [56]: 22.2 µM
- GI50 [57]: 9.05 µM
- TGI [57]: 21.4 µM
- GI50 [58]: 8.99 µM
- TGI [58]: 21.2 µM
- GI50 [59]: 6.3 µM
- TGI [59]: 19.2 µM
